Results: US11220510B2, “Pyrrole tricyclic compounds as A2A / A2B inhibitors” (Incyte Corporation, priority 2018, dated 2022)

Columns and labels:
[1] = target: human adenosine A2B receptor (Homo sapiens (Human), UniProt P29275); experiment: Adenosine A2B Receptor Cyclic AMP GS Assay; format: cell-based; details: HEK-293 cells expressing human A2B; agonist NECA 12 nM; cAMP accumulation by FRET; read-out: A2B_cAMP_EC50
Experimental: Example B. Adenosine A2B Receptor Cyclic AMP GS Assay Stably transfected HEK-293 cells expressing the human adenosine A2B receptor (Perkin Elmer) were maintained in MEM culture medium with 10% FBS and 100 μg/ml Geneticin (Life Technologies). 18 to 24 hours prior to assay, geneticin was removed from culture. The cisbio cAMP-GS Dynamic kit utilizing the FRET (Fluorescence Resonance Energy Transfer) technology was used to measure cAMP accumulation in the cells. Compounds of the present disclosure at an appropriate concentration were mixed with 10000 cells/well in white 96 well half area plates (Perkin Elmer) for 30 min at room temperature gently shaking. Agonist, NECA (R&D Technologies) at 12 nM was added to each well for 60 min at room temperature gently shaking. Detection reagents, d2-labeled cAMP (acceptor) and anti-cAMP cryptate (donor) were added to each well for 60 min at RT gently shaking. Plates were read on Pherastar (BMG Labtech), fluorescence ratio 665/620 was calculated and EC50 determination was performed by fitting the curve of percent of control versus the log of the compound concentration using GraphPad Prism.

[2] = target: Adenosine A2A receptor (Tag-lite Adenosine A2A labeled cells) (Homo sapiens (Human), UniProt P29274); experiment: A2A Tag-lite HTRF assay (fluorescent ligand displacement); details: Red antagonist fluorescent ligand 12.5 nM, one-site competitive binding model, read-out: A2A_Ki
Description: Example C. A2A Tag-Lite® HTRF Assay
The final concentration of DMSO was 1%.

Sequence of Adenosine A2A receptor (Tag-lite Adenosine A2A labeled cells) (P29274 whole entry): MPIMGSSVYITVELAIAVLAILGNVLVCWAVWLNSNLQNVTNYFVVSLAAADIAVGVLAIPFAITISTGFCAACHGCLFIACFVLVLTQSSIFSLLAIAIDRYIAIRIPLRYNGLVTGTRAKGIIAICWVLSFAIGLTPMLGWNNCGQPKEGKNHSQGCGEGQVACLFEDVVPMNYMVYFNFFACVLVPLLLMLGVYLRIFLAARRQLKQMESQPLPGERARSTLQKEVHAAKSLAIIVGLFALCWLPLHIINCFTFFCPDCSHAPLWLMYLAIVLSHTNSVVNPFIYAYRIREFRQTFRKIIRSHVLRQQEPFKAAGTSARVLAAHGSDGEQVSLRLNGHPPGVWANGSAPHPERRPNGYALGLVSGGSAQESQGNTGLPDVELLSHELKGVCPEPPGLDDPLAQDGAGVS
Sequence of human adenosine A2B receptor (P29275 whole entry): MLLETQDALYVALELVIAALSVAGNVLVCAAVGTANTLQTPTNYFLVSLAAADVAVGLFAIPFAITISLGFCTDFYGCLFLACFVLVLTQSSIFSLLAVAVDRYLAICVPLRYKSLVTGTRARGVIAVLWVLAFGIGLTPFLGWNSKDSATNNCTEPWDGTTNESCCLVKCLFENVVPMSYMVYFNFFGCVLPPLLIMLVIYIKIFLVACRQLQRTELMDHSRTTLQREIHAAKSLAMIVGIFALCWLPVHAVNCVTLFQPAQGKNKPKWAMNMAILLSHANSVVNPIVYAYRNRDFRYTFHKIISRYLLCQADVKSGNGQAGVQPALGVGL

SMILES	EC50 [1]	Ki [2]
CCCCCn1c2c(C#N)c[nH]c2c(=O)n2c(C)nnc12 [Example 16, 3-Methyl-5-oxo-9-pentyl-6,9-dihydro-5H-pyrrolo[3,2-d][1,2,4]triazolo[4,3-a]pyrimidine-8-carbonitrile]	–	100 to 1000 nM
CCCCCn1c2c(Br)c[nH]c2c(=O)n2c(C)nnc12 [Example 13, 8-Bromo-3-methyl-9-pentyl-6,9-dihydro-5H-pyrrolo[3,2-d][1,2,4]triazolo[4,3-a]pyrimidin-5-one]	–	10 to 100 nM
CCCCCn1c2cc(-c3ccc(S(=O)(=O)Nc4ccc(C)cc4)cc3)[nH]c2c(=O)n2c(C)nnc12 [Example 11, 4-(3-Methyl-5-oxo-9-pentyl-6,9-dihydro-5H-pyrrolo[3,2-d][1,2,4]triazolo[4,3-a]pyrimidin-7-yl)-N-p-tolylbenzenesulfonamide]	–	10 to 100 nM
CCCCCn1c2cc(-c3cnn(C4CN(c5ncccn5)C4)c3)[nH]c2c(=O)n2c(C)nnc12 [Example 19, 3-Methyl-9-pentyl-7-(1-(1-(pyrimidin-2-yl)azetidin-3-yl)-1H-pyrazol-4-yl)-6,9-dihydro-5H-pyrrolo[3,2-d][1,2,4]triazolo[4,3-a]pyrimidin-5-one]	10 to 100 nM	< 10 nM
CCCCCn1c2c(-c3ccccc3)c[nH]c2c(=O)n2c(C)nnc12 [Example 15, 3-Methyl-9-pentyl-8-phenyl-6,9-dihydro-5H-pyrrolo[3,2-d][1,2,4]triazolo[4,3-a]pyrimidin-5-one]	–	100 to 1000 nM
CCCCCn1c2c(C)c[nH]c2c(=O)n2c(C)nnc12 [Example 14, 3,8-Dimethyl-9-pentyl-6,9-dihydro-5H-pyrrolo[3,2-d][1,2,4]triazolo[4,3-a]pyrimidin-5-one]	–	100 to 1000 nM
CCCCCn1c2cc[nH]c2c(=O)n2c(C)nnc12 [Example 1, 3-Methyl-9-pentyl-6,9-dihydro-5H-pyrrolo[3,2-d][1,2,4]triazolo[4,3-a]pyrimidin-5-one]	–	100 to 1000 nM
CCCCCn1c2cc[nH]c2c(=O)n2c(C)cnc12 [Example 18, 7-Methyl-4-pentyl-1H-imidazo[1,2-a]pyrrolo[3,2-d]pyrimidin-9(4H)-one]	–	10 to 100 nM
CCCCCn1c2c(-c3cnn(Cc4ccccc4)c3)c[nH]c2c(=O)n2c(C)nnc12 [Example 17, 8-(1-Benzyl-1H-pyrazol-4-yl)-3-methyl-9-pentyl-6,9-dihydro-5H-pyrrolo[3,2-d][1,2,4]triazolo[4,3-a]pyrimidin-5-one]	–	100 to 1000 nM

Next, values leading:

EC50 [1]	Ki [2]	SMILES
10 to 100 nM	< 10 nM	CCCCCn1c2cc(-c3cnn(Cc4cncc(F)c4)c3)[nH]c2c(=O)n2c(C)nnc12 [Example 9, 7-(1-((5-Fluoropyridin-3-yl)methyl)-1H-pyrazol-4-yl)-3-methyl-9-pentyl-6,9-dihydro-5H-pyrrolo[3,2-d][1,2,4]triazolo[4,3-a]pyrimidin-5-one]
–	< 10 nM	CCCCCn1c2cc(-c3cnn(Cc4ccccc4)c3)[nH]c2c(=O)n2c(C)nnc12 [Example 10, 7-(1-Benzyl-1H-pyrazol-4-yl)-3-methyl-9-pentyl-6,9-dihydro-5H-pyrrolo[3,2-d][1,2,4]triazolo[4,3-a]pyrimidin-5-one]
10 to 100 nM	< 10 nM	CCCCCn1c2cc(-c3cnn(Cc4cncc(Cl)c4)c3)[nH]c2c(=O)n2c(C)nnc12 [Example 2, 7-(1-((5-Chloropyridin-3-yl)methyl)-1H-pyrazol-4-yl)-3-methyl-9-pentyl-6,9-dihydro-5H-pyrrolo[3,2-d][1,2,4]triazolo[4,3-a]pyrimidin-5-one]
10 to 100 nM	< 10 nM	CCCCCn1c2cc(-c3cnn(Cc4ccn5ccnc5c4)c3)[nH]c2c(=O)n2c(C)nnc12 [Example 5, 7-(1-(Imidazo[1,2-a]pyridin-7-ylmethyl)-1H-pyrazol-4-yl)-3-methyl-9-pentyl-6,9-dihydro-5H-pyrrolo[3,2-d][1,2,4]triazolo[4,3-a]pyrimidin-5-one]
